According to patent US9504687B2, “Treating Bax(Δ)2-positive cancer with chemotherapies targeting caspase 8” (Mumetel, LLC, priority 2013, dated 2016):
Entries after “also recorded” stand apart in the source; their conditions may differ. Read-outs that look alike come from different tables or passages of the source. Where a SMILES comes first, the peptide text is derived from it. The star is where a group is joined. Cbz = O=C(OCc1ccccc1)*

Key:
[1] = tested on: HCT116-BP10 (BaxΔ2 positive) versus HCT116-BN28 (BaxΔ2 negative) sublines; experiment: Cell death assay of HCT116 sublines treated with chemotherapeutic drugs for 36 hours; assay type: cell-based, human; settings: Adriamycin (40 ug/ml) or 5-FU (500 ug/ml), compared with BaxΔ2 negative subline
Description: FIG. 8. […] Adr, Adriamycin; Etop, Etoposide; 5-FU, 5-fluorouracil; Contr, control.
BaxΔ2 positive (HCT116-BP10) and negative (HCT116-BN28) sublines were treated with Adriamycin (40 ug/ml) or 5-FU (500 ug/ml) for 36 hours in a regular cell culture medium. […] Both Adriamycin and Etoposide are in the same category as topoisomerase inhibitors; and both 5-FU and Cytoxan are in the same class of alkaloid drugs.

[2] = tested on: caspase-8; experiment: Immunoblotting for cleaved caspase-8 in chemodrug treated clone #10; assay type: cell-based, human; settings: 5-FU (500 μM) or Adriamycin (4 μg/ml) 24 h
Description: (§1) FIG. 9. BaxΔ2 promotes apoptosis through activation of caspase-8. A, Cell death assay of HCT116 clone #10 and clone #28 cells treated with or without 5-FU (500 μM) or Adriamycin (Adr, 4 μg/ml) for 24 h in the presence of inhibitors (50 μM each) for caspase-3 (DEVD) SEQ ID NO: 4), caspase-8 (IETD) (SEQ ID NO: 5), caspase-1 (YVAD) (SEQ ID NO: 6), and caspase-9 (LEHD) (SEQ ID NO: 7) as indicated. ** P<0.01. inh., inhibitor. B, Caspase-3 assay of HCT116 clone #10 and #28 cells treated as described in (A). The activity of caspase-3 was measured using fluorogenic caspase-3 substrate DEVD-AFC (SEQ ID NO: 4) (50 μM) with a microplate spectrofluorometer. C, Immunoblotting analysis for the detection of cleaved casapase-8 in the chemodrug treated clone #10 and #28 cells with an anti-cleaved caspase-8 antibody.
(§2) Bax typically targets the mitochondria upon activation and results in the activation of the caspase-9 and caspase-3 cascade for cell death. To determine the underlying mechanism by which BaxΔ2 promoted cell death, HCT116 clones #10 and #28 were treated with Adriamycin or 5-FU in the presence of different caspase inhibitors. […] The caspase-3 activity was confirmed by the caspase-3 fluorometric assay (FIG. 9B). […]

[3] = tested on: HCT116 isogenic subline clone #10 (BaxΔ2-positive); assay type: cell-based, human; settings: Table 5 screening
Description: Colon cancer cell line HCT116 was obtained from American Type Culture Collection. The cell line was tested and authenticated by Genetica (Cincinnati. Ohio) before the experiments. Both HCT116 and Bax^−/− mouse embryonic fibroblasts (MEFs) cells were cultured in DMEM supplemented with 10% FBS. To isolate single cell population from HCT116 cells, cells were treated with 500 μM Indomethacin for 72 h to enrich Bax G7 population. Single-cell suspension was plated onto 96-well plates without Indomethacin. Single clones were recovered, expanded, and validated by both genomic sequencing and RT-PCR analysis.
However, the heterogeneity of different cell lines often adds complexity to data interpretation. […] For the initial screening, we selected a panel of different classes of commonly used chemotherapeutic drugs.

[4] = tested on: Bid; experiment: Immunoblotting analysis of cleaved Bid in clone #10; assay type: cell-based, human; settings: BaxΔ2-positive clone #10 cells
Description: (§3) FIG. 10. The Bid-dependent mitochondrial death pathway is not essential for the onset of chemodrug-induced apoptosis in BaxΔ2-positive cells. A, Immunoblotting analysis of cleaved Bid in HCT116 clone #10 and #28 cells treated with or without 5-FU (500 μM) or Adriamycin ([…]) as indicated. The intensities of truncated Bid bands were quantitated relevant to the actin control and are presented as arbitrary numbers. B, Cell death assay of HCT116 clone #10 cells treated with 5-FU (500 μM) in the presence of a Bid specific inhibitor (BI-6C9; 10 μM) or Bid siRNA. C, Cell death assay of clone #10 cells treated with 5-FU (500 μM) in the presence of a caspase-9 inhibitor (LEHD (SEQ ID NO: 7); 50 μM) or transfected with a caspase-9 dominant negative (D/N) mutant construct. D, Representative images of JC-1 staining. Carbonyl cyanide 4-(trifluoromethoxy) phenylhydrazone (FCCP; 100 μM) was used as a positive control. JC-1 monomer green fluorescence as observed by excitation with 488 nm and emission with 529 nm (top panel). JC-1 aggregate red fluorescence as observed by excitation at 546 nm and emission at 590 nm (bottom panel).
(§4) Caspase-8 is one of the initiator caspases in the extrinsic death receptor pathway. […] We next determined if the Bid-dependent mitochondrial death pathway was required for BaxΔ2 to promote apoptosis. […]

[5] = tested on: prostate cancer 104-R cells (G7/G7); settings: previously shown; cited from earlier work
[6] = tested on: colon cancer LoVo cells (G7/G9); settings: previously shown; cited from earlier work
[7] = tested on: BaxΔ2 protein; experiment: Immunoblotting of BaxΔ2 protein after MG-132 treatment, clone #10; assay type: cell-based, human; settings: clone #10 (HCT116-BP10); MG-132 10 μM for 8 h
Description: (§5) FIG. 7. Generation and characterization of the isogenic subline cells with the different Bax microsatellite status. A, Schematic diagram of generating the HCT116 sublines. Cells were treated with 500 μM Indomethacin for 72 h. A single cell suspension was plated into 96-well plates without Indomethacin. Bax microsatellite statuses (G8/G8, G8/G7, or G7/G7) of each sublines were determined by genomic sequencing as described in the methods. B, RT-PCR analysis of Bax alternative splicing and BaxΔ2 production. The cDNAs were generated from HCT116 clones #10 (G7/G7 genotype) and clone #28 (G8/G7 genotype) with a set of primers that cover Bax exon 1 through exon 6, or primers specific for BaxΔ2 as described in the methods. The PCR products of Baxα and BaxΔ2 plasmid DNA were used as controls. […] Total 1×10^4 cells were seeded onto 24-well plates and the cell numbers were counted every 24 h up to 96 h. […]
(§6) We then determined the expression of endogenous BaxΔ2 proteins in the HCT116 clones #10 and #28 subline cells using a specific anti-BaxΔ2 antibody. […] Of note, both clone #10 and clone #28 had no detectable parental Baxα proteins, as analyzed by immunoblotting using several anti-Baxα antibodies (FIG. 7C and data not shown).

[8] = tested on: BaxΔ2 protein; experiment: Immunoblotting of BaxΔ2 protein after MG-132 treatment, clone #28; assay type: cell-based, human; settings: clone #28 (HCT116-BN28); MG-132 10 μM for 8 h
Description: as §5, §6

[9] = tested on: HCT116 clone #10; experiment: Cell death assay of clone #10 treated with 5-FU with Bid or caspase-9 inhibition; assay type: cell-based, human; settings: clone #10 treated with 5-FU (500 μM); BI-6C9 10 μM; LEHD 50 μM
Description: as §3, with “(bottom panel). […]” for “(bottom panel).”
as §4

[10] = tested on: HCT116 clone #10; experiment: Cell death assay with chemodrug in the presence of caspase inhibitors; assay type: cell-based, human; settings: clone #10 treated with 5-FU (500 μM) or Adriamycin (4 μg/ml) 24 h; inhibitors 50 μM each
Description: as §1, §2

| Compound | Sensitivity of BaxΔ2 positive clone #10 cells to treatment (cell death assay) [1] | Caspase-8 activation (cleaved caspase-8 fragments 43 kDa and 18 kDa) [2] | Bid degradation (cleaved Bid) [4] | Inhibition of chemodrug-induced apoptosis [10] | further results |
| --- | --- | --- | --- | --- | --- |
| O=c1[nH]cc(F)c(=O)[nH]1 [5-FU, 5-Fluorouracil] | more sensitive | activated | partially degraded | – | Sensitivity of BaxΔ2-positive clone #10 compared with BaxΔ2-negative clone #28 [3]: highly sensitive; also recorded: selectively sensitive |
| COc1cccc2c1C(=O)c1c(O)c3c(c(O)c1C2=O)C[C@@](O)(C(=O)CO)C[C@@H]3O[C@H]1C[C@H](N)[C@H](O)[C@H](C)O1 [Doxorubicin, doxorubicin] | more sensitive | activated | partially degraded | – | Sensitivity of BaxΔ2-positive clone #10 compared with BaxΔ2-negative clone #28 ([3]; listed as Adriamycin): more sensitive; also recorded: selectively sensitive; Sensitivity to treatment compared with cancer cells with wild type Bax [5]: more sensitive; Sensitivity to treatment compared with cancer cells with wild type Bax [6]: more sensitive |
| CC(C)C[C@@H](C=O)NC(=O)[C@H](CC(C)C)NC(=O)[C@H](CC(C)C)NC(=O)OCc1ccccc1 [MG-132] (Cbz-Leu-Leu-Leu-aldehyde) | – | – | – | – | Detection of BaxΔ2 proteins after treatment [7]: easily detected; Detection of BaxΔ2 proteins after treatment [8]: no detectable BaxΔ2 proteins |
| Bid siRNA: Bid siRNA (5′GGGCAAAAGC UUACAAAUAUU3′) (SEQ ID NO: 47) (GGGCAAAAGCUUACAAAUAUU; listed as RNA, chemistry not given here) | – | – | – | – | Effect on chemodrug-induced apoptosis [9]: did not significantly affect |
| Z-DEVD-FMK (N-Z, C-terminal fluoromethylketone) [caspase-3 inhibitor] | – | – | – | effectively inhibited | – |
| Z-IETD-FMK (N-Z, C-terminal fluoromethylketone) [caspase-8 inhibitor] | – | – | – | effectively inhibited | – |
